Source: US20090247559A1 (Exelixis, Inc., priority 2007, published 2009)

Assays:
[1] = biological target: PIM (PIM-1, PIM-2, and/or PIM-3); experiment: PIM-1, PIM-2 and PIM-3 inhibition, biochemical chemiluminescence assays (Kinase Glo, IC50 determination); settings: Table 1 activity class; PIM refers to PIM-1, PIM-2, and/or PIM-3; read-out: PIM IC50 (Activity B)
Experimental: (§1) The IC50 evaluation of compounds against the PIM-1 oncogene was performed in a Chemiluminesence assay utilizing a Greiner 384-well white medium binding white plate format. […] Following an incubation period of 120 minutes at ambient temperature (24-27° C.), 10 μL of Kinase Glo (Promega) was added. The luminescence was measured following a Luminescence Protocol on a Victor plate reader.
as §1, with “PIM-2” for “PIM-1”, “format. […] The assay procedure involves compound dilution followed by addition of 3 nM PIM-2 to the designated well plates and subsequent pre-incubation of the compounds with the enzyme for 30 minutes at ambient temperature (24-27° C.).” for “format.”
as §1, with “PIM-3 Oncogene” for “PIM-1 oncogene”

CK2 = CK2 (Homo sapiens, UniProt P68400); experiment: CK2 inhibition, biochemical chemiluminescence holoenzyme assay (Kinase Glo, IC50 determination); settings: Table 1 activity class; symbol given only if active; read-out: CK2 IC50 (Activity C)
Experimental: Characterization of CK2 Inhibition in a Biochemical Chemiluminesence Assay (IC50 Determination):
The IC50 evaluation of compounds against CK2 was performed in a Chemiluminesence Holoenzyme assay utilizing a Greiner 384-well white medium binding white plate format. […] The assay procedure involves the compound dilution scheme followed by addition of 10 μL of the substrate twice, followed by 10 μL twice of the respective enzyme or buffer to the designated well plates and subsequent pre-incubation of the compounds. Following an incubation period of 150 minutes at ambient temperature (24-27° C.), 10 μL of Kinase Glo (Promega) was added. The luminescence was measured following a Luminescence Protocol on a Victor plate reader.

Sequence of CK2 (P68400 whole entry): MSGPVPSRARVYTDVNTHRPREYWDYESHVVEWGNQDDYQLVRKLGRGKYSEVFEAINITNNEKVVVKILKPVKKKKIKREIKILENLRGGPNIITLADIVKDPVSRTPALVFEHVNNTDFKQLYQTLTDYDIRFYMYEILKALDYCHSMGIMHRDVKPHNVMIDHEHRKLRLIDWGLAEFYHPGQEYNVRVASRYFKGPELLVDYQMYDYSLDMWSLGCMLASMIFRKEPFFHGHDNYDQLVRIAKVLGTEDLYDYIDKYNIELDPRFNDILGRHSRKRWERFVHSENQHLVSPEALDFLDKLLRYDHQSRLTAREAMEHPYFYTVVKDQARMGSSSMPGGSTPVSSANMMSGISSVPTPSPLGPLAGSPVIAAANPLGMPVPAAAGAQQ
Sequence of CK2 (P67870 whole entry partner): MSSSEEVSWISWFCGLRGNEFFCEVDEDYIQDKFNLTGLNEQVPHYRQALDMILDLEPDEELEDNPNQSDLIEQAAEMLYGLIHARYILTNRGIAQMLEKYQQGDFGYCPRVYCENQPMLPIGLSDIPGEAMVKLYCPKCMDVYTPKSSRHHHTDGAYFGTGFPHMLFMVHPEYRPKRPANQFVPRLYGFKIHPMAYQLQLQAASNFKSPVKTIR

Work on O=C(Nc1ccc(-c2nc3c(oc4ccc(Br)cc43)c(=O)[nH]2)c(Cl)c1)C1CCCCC1 [Compound 250, N-[4-(8-bromo-4-oxo-3,4-dihydro[1]benzofuro[3,2-d]pyrimidin-2-yl)-3-chlorophenyl]cyclohexanecarboxamide] yielded an IC50 [1] of less than 10 µM and an IC50 (CK2) of less than 10 µM.

Work on CCC(c1nc2c(oc3ccc(Br)cc32)c(=O)[nH]1)N1CCN(C)CC1 (stereo not shown) [Compound 172, 8-bromo-2-[1-(4-methylpiperazin-1-yl)propyl][1]benzofuro[3,2-d]pyrimidin-4(3H)-one] yielded an IC50 [1] of less than 10 µM and an IC50 (CK2) of less than 10 µM.

O=c1[nH]c(CN2CC[C@H](O)C2)nc2c1oc1ccc(NCc3ccc(F)cc3F)cc12 [Compound 465, 8-{[(2,4-difluorophenyl)methyl]amino}-2-{[(3S)-3-hydroxypyrrolidin-1-yl]methyl}[1]benzofuro[3,2-d]pyrimidin-4(3H)-one] was tested, and the IC50 [1] was less than 10 µM and the IC50 (CK2) was less than 10 µM.

For O=c1[nH]c(Nc2ccccc2)nc2c1oc1ccc(Br)cc12 [Compound 180, 8-bromo-2-(phenylamino)[1]benzofuro[3,2-d]pyrimidin-4(3H)-one], the IC50 [1] was less than 10 µM and the IC50 (CK2) was less than 10 µM.

Work on COc1ccc(F)c(-c2nc3c(oc4ccc(Br)cc43)c(=O)[nH]2)c1 [Compound 67, 8-bromo-2-[2-fluoro-5-(methyloxy)phenyl][1]benzofuro[3,2-d]pyrimidin-4(3H)-one] yielded an IC50 [1] of less than 10 µM and an IC50 (CK2) of less than 10 µM.

Work on O=c1[nH]c(-c2ccc(OCC3CNCCO3)cc2)nc2c1oc1ccc(Br)cc12 (stereo not shown) [Compound 359, 8-Bromo-2-{4-[(morpholin-2-ylmethyl)oxy]phenyl}[1]benzofuro[3,2-d]pyrimidin-4(3H)-one] yielded an IC50 [1] of less than 10 µM and an IC50 (CK2) of less than 10 µM.

O=C(Nc1ccc(Cl)c(-c2nc3c(oc4ccc(Br)cc43)c(=O)[nH]2)c1)c1cncnc1 [Compound 329, N-[3-(8-bromo-4-oxo-3,4-dihydro[1]benzofuro[3,2-d]pyrimidin-2-yl)-4-chlorophenyl]pyrimidine-5-carboxamide] showed an IC50 [1] of less than 10 µM and an IC50 (CK2) of less than 10 µM.

For CN(C)CCCCNc1ccc(-c2nc3c(oc4ccc(Br)cc43)c(=O)[nH]2)c(Cl)c1 [Compound 136, 8-bromo-2-(2-chloro-4-{[4-(dimethylamino)butyl]amino}phenyl)[1]benzofuro[3,2-d]pyrimidin-4(3H)-one], the IC50 [1] was less than 10 µM and the IC50 (CK2) was less than 10 µM.

COc1cccc(CNc2ccc3oc4c(=O)[nH]c(CN5CC[C@H](O)C5)nc4c3c2)c1 [Compound 467, 2-{[(3S)-3-hydroxypyrrolidin-1-yl]methyl}-8-({[3-(methyloxy)phenyl]methyl}amino)[1]benzofuro[3,2-d]pyrimidin-4(3H)-one] was tested, and the IC50 [1] was less than 10 µM and the IC50 (CK2) was less than 10 µM.

In the case of O=c1[nH]c(-c2ccccc2C(F)(F)F)nc2c1oc1ccc(Br)cc12 [Compound 65, 8-bromo-2-[2-(trifluoromethyl)phenyl][1]benzofuro[3,2-d]pyrimidin-4(3H)-one], the IC50 [1] is reported as less than 10 µM and the IC50 (CK2) is reported as less than 10 µM.

For O=C(Nc1ccc(-c2nc3c(oc4ccc(Br)cc43)c(=O)[nH]2)c(Cl)c1)c1ccc2cccnc2n1 [Compound 405, N-[4-(8-bromo-4-oxo-3,4-dihydro[1]benzofuro[3,2-d]pyrimidin-2-yl)-3-chlorophenyl]-1,8-naphthyridine-2-carboxamide], the IC50 [1] was less than 10 µM and the IC50 (CK2) was less than 10 µM.

Compound O=c1[nH]c(CNCc2ccncc2)nc2c1oc1ccc(Br)cc12 [Compound 165, 8-bromo-2-{[(pyridin-4-ylmethyl)amino]methyl}[1]benzofuro[3,2-d]pyrimidin-4(3H)-one] has an IC50 [1] of less than 10 µM and an IC50 (CK2) of less than 10 µM.

NC[C@H]1CC[C@H](c2nc3c(oc4ccc(Br)cc43)c(=O)[nH]2)CC1 [Compound 376, 2-[trans-4-(Aminomethyl)cyclohexyl]-8-bromo[1]benzofuro[3,2-d]pyrimidin-4(3H)-one] was tested, and the IC50 [1] was less than 10 µM and the IC50 (CK2) was less than 10 µM.

O=c1[nH]c(-c2ccccc2Br)nc2c1oc1ccc(Br)cc12 [Compound 38, 8-Bromo-2-(2-bromophenyl)[1]benzofuro[3,2-d]pyrimidin-4(3H)-one] gave an IC50 [1] of less than 10 µM and an IC50 (CK2) of less than 10 µM.

With O=c1[nH]c(CN2CC[C@H](O)C2)nc2c1oc1ccc(C#CCCCCO)cc12 [Compound 456, 8-(6-hydroxyhex-1-yn-1-yl)-2-{[(3S)-3-hydroxypyrrolidin-1-yl]methyl}[1]benzofuro[3,2-d]pyrimidin-4(3H)-one] the IC50 [1] was less than 10 µM and the IC50 (CK2) was less than 10 µM.

CC(C)CNC(=O)c1cccc(-c2nc3c(oc4ccc(Br)cc43)c(=O)[nH]2)c1 [Compound 101, 3-(8-bromo-4-oxo-3,4-dihydro[1]benzofuro[3,2-d]pyrimidin-2-yl)-N-(2-methylpropyl)benzamide] was tested, and the IC50 [1] was less than 10 µM and the IC50 (CK2) was less than 10 µM.

Work on O=c1[nH]c(CNCc2cccc(Cl)c2)nc2c1oc1ccc(Br)cc12 [Compound 256, 8-bromo-2-({[(3-chlorophenyl)methyl]amino}methyl)[1]benzofuro[3,2-d]pyrimidin-4(3H)-one] yielded an IC50 [1] of less than 10 µM and an IC50 (CK2) of less than 10 µM.

Compound O=c1[nH]c(COc2ccccc2)nc2c1oc1ccc(Br)cc12 [Compound 15, 8-bromo-2-[(phenyloxy)methyl][1]benzofuro[3,2-d]pyrimidin-4(3H)-one] has an IC50 [1] of less than 10 µM and an IC50 (CK2) of less than 10 µM.

In the case of Nc1ncc(Cl)c(-c2nc3c(oc4ccc(Br)cc43)c(=O)[nH]2)n1 [Compound 243, 2-(2-amino-5-chloropyrimidin-4-yl)-8-bromo[1]benzofuro[3,2-d]pyrimidin-4(3H)-one], the IC50 [1] is reported as less than 10 µM and the IC50 (CK2) is reported as less than 10 µM.

In the case of Cc1cc(NCC2CCNCC2)ccc1-c1nc2c(oc3ccc(Br)cc32)c(=O)[nH]1 [Compound 54, 8-bromo-2-{2-methyl-4-[(piperidin-4-ylmethyl)amino]phenyl}[1]benzofuro[3,2-d]pyrimidin-4(3H)-one], the IC50 [1] is reported as less than 10 µM and the IC50 (CK2) is reported as less than 10 µM.

With CCOC(=O)Cc1ccc2oc3c(=O)[nH]c(CN4CC[C@H](O)C4)nc3c2c1 [Compound 491, ethyl (2-{[(3S)-3-hydroxypyrrolidin-1-yl]methyl}-4-oxo-3,4-dihydro[1]benzofuro[3,2-d]pyrimidin-8-yl)acetate] the IC50 [1] was less than 10 µM and the IC50 (CK2) was less than 10 µM.

Work on O=c1[nH]c(-c2ccc(N3CCNCC3)cc2)nc2c1oc1ccc(Br)cc12 [Compound 303, 8-Bromo-2-(4-piperazin-1-ylphenyl)[1]benzofuro[3,2-d]pyrimidin-4(3H)-one] yielded an IC50 [1] of less than 10 µM and an IC50 (CK2) of less than 10 µM.

For O=c1[nH]c(CNc2cccc(F)c2)nc2c1oc1ccc(Br)cc12 [Compound 12, 8-bromo-2-{[(3-fluorophenyl)amino]methyl}[1]benzofuro[3,2-d]pyrimidin-4(3H)-one], the IC50 (CK2) was less than 10 µM.

In the case of COc1ccc2oc3c(=O)[nH]c(-c4ccc(N)cc4Cl)nc3c2c1 [Cpd 129, 2-(4-amino-2-chlorophenyl)-8-(methyloxy)[1]benzofuro[3,2-d]pyrimidin-4(3H)-one], the IC50 (CK2) is reported as less than 10 µM.

COc1ccc2oc3c(=O)[nH]c(-c4ccc(NCC5CCN(C(=O)OC(C)(C)C)CC5)cc4Cl)nc3c2c1 [Cpd 137, 1,1-dimethylethyl 4-[({3-chloro-4-[8-(methyloxy)-4-oxo-3,4-dihydro[1]benzofuro[3,2-d]pyrimidin-2-yl]phenyl}amino)methyl]piperidine-1-carboxylate] gave an IC50 (CK2) of less than 10 µM.

Compound CN(C)CCNCc1nc2c(oc3ccc(Br)cc32)c(=O)[nH]1 [Compound 200, 8-bromo-2-({[2-(dimethylamino)ethyl]amino}methyl)[1]benzofuro[3,2-d]pyrimidin-4(3H)-one] has an IC50 [1] of less than 10 µM.

O=c1[nH]c(CNc2ccc(F)cc2)nc2c1oc1ccc(Br)cc12 [Compound 22, 8-bromo-2-{[(4-fluorophenyl)amino]methyl}[1]benzofuro[3,2-d]pyrimidin-4(3H)-one] showed an IC50 [1] of less than 10 µM.

Work on COc1ccc(C(=O)Nc2ccc(Cl)c(-c3nc4c(oc5ccc(Br)cc54)c(=O)[nH]3)c2)cn1 [Compound 357, N-[3-(8-bromo-4-oxo-3,4-dihydro[1]benzofuro[3,2-d]pyrimidin-2-yl)-4-chlorophenyl]-6-(methyloxy)pyridine-3-carboxamide] yielded an IC50 [1] of less than 10 µM.

In the case of O=c1[nH]c(CN2CCN(CCN3CCOCC3)CC2)nc2c1oc1ccc(Br)cc12 [Compound 82, 8-bromo-2-{[4-(2-morpholin-4-ylethyl)piperazin-1-yl]methyl}[1]benzofuro[3,2-d]pyrimidin-4(3H)-one], the IC50 [1] is reported as less than 10 µM.

With CN1CCN(C(Cc2ccccc2)c2nc3c(oc4ccc(Br)cc43)c(=O)[nH]2)CC1 (stereo not shown) [Compound 215, 8-bromo-2-[1-(4-methylpiperazin-1-yl)-2-phenylethyl][1]benzofuro[3,2-d]pyrimidin-4(3H)-one] the IC50 [1] was less than 10 µM.
